Laboratory results as given in ChEMBL document CHEMBL4011590, “Structure-activity relationship studies on 3,5-dinitrophenyl tetrazoles as antitubercular agents” (Eur J Med Chem, 2017).

Experiments:
Klebsiella pneumoniae [1] = test: Antibacterial activity against Klebsiella pneumoniae HK11750/08 after 48 hrs by broth microdilution method; format: functional; conditions: HK11750/08, 48 h
Mycobacterium avium [2] = test: Antimycobacterial activity against Mycobacterium avium CNCTC My 330/80 after 21 days by micromethod; format: functional; conditions: CNCTC My 330/80, 504 h
Lichtheimia corymbifera [3] = test: Antifungal activity against Absidia corymbifera 272 after 48 hrs by broth microdilution method; format: functional; conditions: Lichtheimia corymbifera, 272, 48 h
Aspergillus fumigatus [4] = test: Antifungal activity against Aspergillus fumigatus 231 after 48 hrs by broth microdilution method; format: functional; conditions: Aspergillus fumigatus, 231, 48 h
Escherichia coli [5] = test: Antibacterial activity against Escherichia coli ATCC 8739 after 24 hrs by broth microdilution method; format: functional; conditions: ATCC 8739, 24 h
Klebsiella pneumoniae [6] = test: Antibacterial activity against extended spectrum beta-lactamase producing Klebsiella pneumoniae HK14368/08 after 24 hrs by broth microdilution method; format: functional; conditions: HK14368/08, 24 h
[7] = system: Mycobacterium tuberculosis; test: Antimycobacterial activity against Mycobacterium tuberculosis H37Rv CNCTC My 331/88 after 21 days by micromethod; format: functional; conditions: H37Rv CNCTC My 331/88, 504 h
Enterococcus sp. [8] = test: Antibacterial activity against Enterococcus sp. HK14365/08 after 24 hrs by broth microdilution method; format: functional; conditions: HK14365/08, 24 h
Pichia kudriavzevii [9] = test: Antifungal activity against Candida krusei E28 after 24 hrs by broth microdilution method; format: functional; conditions: E28, 24 h
Mycobacterium kansasii [10] = test: Antimycobacterial activity against Mycobacterium kansasii isolate 6509/96 after 14 days by micromethod; format: functional; conditions: isolate 6509/96, 336 h
[11] = system: Trichophyton mentagrophytes; test: Antifungal activity against Trichophyton mentagrophytes 445 after 120 hrs by broth microdilution method; format: functional; conditions: Trichophyton mentagrophytes, 445, 120 h
Trichosporon asahii [12] = test: Antifungal activity against Trichosporon asahii 1188 after 24 hrs by broth microdilution method; format: functional; conditions: Trichosporon asahii, 1188, 24 h
Nakaseomyces glabratus [13] = test: Antifungal activity against Candida glabrata 20/I after 48 hrs by broth microdilution method; format: functional
Pseudomonas aeruginosa [14] = test: Antibacterial activity against Pseudomonas aeruginosa ATCC 9027 after 48 hrs by broth microdilution method; format: functional; conditions: ATCC 9027, 48 h
Escherichia coli [15] = test: Antibacterial activity against Escherichia coli ATCC 8739 after 48 hrs by broth microdilution method; format: functional; conditions: ATCC 8739, 48 h
Staphylococcus aureus [16] = test: Antibacterial activity against methicillin-resistant Staphylococcus aureus HK5996/08 after 24 hrs by broth microdilution method; format: functional; conditions: HK5996/08, 24 h
Candida tropicalis [17] = test: Antifungal activity against Candida tropicalis 156 after 48 hrs by broth microdilution method; format: functional; conditions: Candida tropicalis, 156, 48 h
Staphylococcus aureus [18] = test: Antibacterial activity against Staphylococcus aureus ATCC 6538 after 24 hrs by broth microdilution method; format: functional; conditions: ATCC 6538, 24 h
Staphylococcus aureus [19] = test: Antibacterial activity against Staphylococcus aureus ATCC 6538 after 48 hrs by broth microdilution method; format: functional; conditions: ATCC 6538, 48 h
Klebsiella pneumoniae [20] = test: Antibacterial activity against extended spectrum beta-lactamase producing Klebsiella pneumoniae HK14368/08 after 48 hrs by broth microdilution method; format: functional; conditions: HK14368/08, 48 h
Staphylococcus aureus [21] = test: Antibacterial activity against methicillin-resistant Staphylococcus aureus HK5996/08 after 48 hrs by broth microdilution method; format: functional; conditions: HK5996/08, 48 h
Enterococcus sp. [22] = test: Antibacterial activity against Enterococcus sp. HK14365/08 after 48 hrs by broth microdilution method; format: functional; conditions: HK14365/08, 48 h
Mycobacterium kansasii [23] = test: Antimycobacterial activity against Mycobacterium kansasii isolate 6509/96 after 21 days by micromethod; format: functional; conditions: isolate 6509/96, 504 h
[24] = system: Mycobacterium tuberculosis; test: Antimycobacterial activity against Mycobacterium tuberculosis H37Rv CNCTC My 331/88 after 14 days by micromethod; format: functional; conditions: H37Rv CNCTC My 331/88, 336 h
Mycobacterium avium [25] = test: Antimycobacterial activity against Mycobacterium avium CNCTC My 330/80 after 14 days by micromethod; format: functional; conditions: CNCTC My 330/80, 336 h
Candida albicans [26] = test: Antifungal activity against Candida albicans ATCC 44859 after 24 hrs by broth microdilution method; format: functional; conditions: ATCC 44859, 24 h
Pseudomonas aeruginosa [27] = test: Antibacterial activity against Pseudomonas aeruginosa ATCC 9027 after 24 hrs by broth microdilution method; format: functional; conditions: ATCC 9027, 24 h
Mycobacterium kansasii [28] = test: Antimycobacterial activity against Mycobacterium kansasii CNCTC My 235/80 after 7 days by micromethod; format: functional; conditions: CNCTC My 235/80, 168 h
CHO-K1 = test: Cytotoxicity against CHOK1 cells after 24 hrs by MTT assay; format: cell-based; conditions: Cricetulus griseus, CHO-K1, 24 h
Pichia kudriavzevii [29] = test: Antifungal activity against Candida krusei E28 after 48 hrs by broth microdilution method; format: functional; conditions: E28, 48 h
Mycobacterium kansasii [30] = test: Antimycobacterial activity against Mycobacterium kansasii CNCTC My 235/80 after 14 days by micromethod; format: functional; conditions: CNCTC My 235/80, 336 h
[31] = system: Staphylococcus epidermidis; test: Antibacterial activity against Staphylococcus epidermidis HK6966/08 after 24 hrs by broth microdilution method; format: functional; conditions: HK6966/08, 24 h
Candida albicans [32] = test: Antifungal activity against Candida albicans ATCC 44859 after 48 hrs by broth microdilution method; format: functional; conditions: ATCC 44859, 48 h
[33] = system: Staphylococcus epidermidis; test: Antibacterial activity against Staphylococcus epidermidis HK6966/08 after 48 hrs by broth microdilution method; format: functional; conditions: HK6966/08, 48 h
Lichtheimia corymbifera [34] = test: Antifungal activity against Absidia corymbifera 272 after 24 hrs by broth microdilution method; format: functional; conditions: Lichtheimia corymbifera, 272, 24 h
Klebsiella pneumoniae [35] = test: Antibacterial activity against Klebsiella pneumoniae HK11750/08 after 24 hrs by broth microdilution method; format: functional; conditions: HK11750/08, 24 h
Candida tropicalis [36] = test: Antifungal activity against Candida tropicalis 156 after 24 hrs by broth microdilution method; format: functional; conditions: Candida tropicalis, 156, 24 h
Nakaseomyces glabratus [37] = test: Antifungal activity against Candida glabrata 20/I after 24 hrs by broth microdilution method; format: functional
Mycobacterium kansasii [38] = test: Antimycobacterial activity against Mycobacterium kansasii isolate 6509/96 after 7 days by micromethod; format: functional; conditions: isolate 6509/96, 168 h
Mycobacterium kansasii [39] = test: Antimycobacterial activity against Mycobacterium kansasii CNCTC My 235/80 after 21 days by micromethod; format: functional; conditions: CNCTC My 235/80, 504 h
Trichosporon asahii [40] = test: Antifungal activity against Trichosporon asahii 1188 after 48 hrs by broth microdilution method; format: functional; conditions: Trichosporon asahii, 1188, 48 h
[41] = system: Trichophyton mentagrophytes; test: Antifungal activity against Trichophyton mentagrophytes 445 after 72 hrs by broth microdilution method; format: functional; conditions: Trichophyton mentagrophytes, 445, 72 h
Aspergillus fumigatus [42] = test: Antifungal activity against Aspergillus fumigatus 231 after 24 hrs by broth microdilution method; format: functional; conditions: Aspergillus fumigatus, 231, 24 h

O=[N+]([O-])c1cc(-c2nnn(Cc3cccc(Br)c3)n2)cc([N+](=O)[O-])c1
2 µM: MIC99 (Mycobacterium kansasii [23]) | MIC99 (Mycobacterium kansasii [30]) | MIC99 (Mycobacterium kansasii [39])
1 µM: MIC99 (Mycobacterium kansasii [10]) | MIC99 (Mycobacterium kansasii [28])
4 µM: MIC99 (Mycobacterium avium [25])
0.25 µM: MIC99 [7] | MIC99 [24]
8 µM: MIC99 (Mycobacterium avium [2])
0.5 µM: MIC99 (Mycobacterium kansasii [38])
29 µM: IC50 (CHO-K1)
> 500 µM: MIC (Klebsiella pneumoniae [1]) | MIC (Lichtheimia corymbifera [3]) | MIC (Aspergillus fumigatus [4]) | MIC (Escherichia coli [5]) | MIC (Klebsiella pneumoniae [6]) | MIC (Enterococcus sp. [8]) | MIC (Pichia kudriavzevii [9]) | MIC [11] | MIC (Trichosporon asahii [12]) | MIC (Nakaseomyces glabratus [13]) | MIC (Pseudomonas aeruginosa [14]) | MIC (Escherichia coli [15]) | MIC (Staphylococcus aureus [16]) | MIC (Candida tropicalis [17]) | MIC (Klebsiella pneumoniae [20]) | MIC (Staphylococcus aureus [21]) | MIC (Enterococcus sp. [22]) | MIC (Candida albicans [26]) | MIC (Pseudomonas aeruginosa [27]) | MIC (Pichia kudriavzevii [29]) | MIC (Candida albicans [32]) | MIC (Lichtheimia corymbifera [34]) | MIC (Klebsiella pneumoniae [35]) | MIC (Candida tropicalis [36]) | MIC (Nakaseomyces glabratus [37]) | MIC (Trichosporon asahii [40]) | MIC [41] | MIC (Aspergillus fumigatus [42])
250 µM: MIC (Staphylococcus aureus [18]) | MIC (Staphylococcus aureus [19]) | MIC [31] | MIC [33]

COc1cccc(Cn2nnc(-c3cc([N+](=O)[O-])cc([N+](=O)[O-])c3)n2)c1
> 100 µM: IC50 (CHO-K1)
4 µM: MIC99 (Mycobacterium avium [25]) | MIC99 (Mycobacterium kansasii [39])
2 µM: MIC99 (Mycobacterium kansasii [10]) | MIC99 (Mycobacterium kansasii [23]) | MIC99 (Mycobacterium kansasii [30])
> 500 µM: MIC (Klebsiella pneumoniae [1]) | MIC (Lichtheimia corymbifera [3]) | MIC (Aspergillus fumigatus [4]) | MIC (Escherichia coli [5]) | MIC (Klebsiella pneumoniae [6]) | MIC (Enterococcus sp. [8]) | MIC (Pichia kudriavzevii [9]) | MIC [11] | MIC (Trichosporon asahii [12]) | MIC (Nakaseomyces glabratus [13]) | MIC (Pseudomonas aeruginosa [14]) | MIC (Escherichia coli [15]) | MIC (Staphylococcus aureus [16]) | MIC (Candida tropicalis [17]) | MIC (Staphylococcus aureus [18]) | MIC (Staphylococcus aureus [19]) | MIC (Klebsiella pneumoniae [20]) | MIC (Staphylococcus aureus [21]) | MIC (Enterococcus sp. [22]) | MIC (Candida albicans [26]) | MIC (Pseudomonas aeruginosa [27]) | MIC (Pichia kudriavzevii [29]) | MIC [31] | MIC (Candida albicans [32]) | MIC [33] | MIC (Lichtheimia corymbifera [34]) | MIC (Klebsiella pneumoniae [35]) | MIC (Candida tropicalis [36]) | MIC (Nakaseomyces glabratus [37]) | MIC (Trichosporon asahii [40]) | MIC [41] | MIC (Aspergillus fumigatus [42])
1 µM: MIC99 [7] | MIC99 [24] | MIC99 (Mycobacterium kansasii [28]) | MIC99 (Mycobacterium kansasii [38])
8 µM: MIC99 (Mycobacterium avium [2])

Cc1ccc(Cn2nnnc2-c2cc([N+](=O)[O-])cc([N+](=O)[O-])c2)cc1
8 µM: MIC99 (Mycobacterium avium [25])
500 µM: MIC (Klebsiella pneumoniae [1]) | MIC (Escherichia coli [5]) | MIC (Klebsiella pneumoniae [6]) | MIC (Escherichia coli [15]) | MIC (Klebsiella pneumoniae [20]) | MIC (Klebsiella pneumoniae [35])
125 µM: MIC (Staphylococcus aureus [16]) | MIC (Staphylococcus aureus [18]) | MIC (Staphylococcus aureus [19]) | MIC (Staphylococcus aureus [21])
4 µM: MIC99 (Mycobacterium kansasii [10]) | MIC99 (Mycobacterium kansasii [23]) | MIC99 (Mycobacterium kansasii [39])
28 µM: IC50 (CHO-K1)
16 µM: MIC99 (Mycobacterium avium [2])
> 500 µM: MIC (Lichtheimia corymbifera [3]) | MIC (Aspergillus fumigatus [4]) | MIC (Pichia kudriavzevii [9]) | MIC [11] | MIC (Trichosporon asahii [12]) | MIC (Nakaseomyces glabratus [13]) | MIC (Pseudomonas aeruginosa [14]) | MIC (Candida tropicalis [17]) | MIC (Candida albicans [26]) | MIC (Pseudomonas aeruginosa [27]) | MIC (Pichia kudriavzevii [29]) | MIC (Candida albicans [32]) | MIC (Lichtheimia corymbifera [34]) | MIC (Candida tropicalis [36]) | MIC (Nakaseomyces glabratus [37]) | MIC (Trichosporon asahii [40]) | MIC [41] | MIC (Aspergillus fumigatus [42])
1 µM: MIC99 [24] | MIC99 (Mycobacterium kansasii [28])
250 µM: MIC (Enterococcus sp. [8]) | MIC (Enterococcus sp. [22]) | MIC [31] | MIC [33]
2 µM: MIC99 [7] | MIC99 (Mycobacterium kansasii [30]) | MIC99 (Mycobacterium kansasii [38])
